Laboratory results from US4840969A, “N-substituted benzamides” (Bayer Aktiengesellschaft, priority 1986, dated 1989).

Key:
Meloidogyne incognita = assay: Critical concentration test/nematodes, Meloidogyne incognita (lettuce in infested soil); assay type: in vivo; settings: active compound concentration of 1.25 ppm-10 ppm in soil; lettuce root galls after four weeks; 27° C.
Method: Critical concentration test/nematodes
Test nematode: Meloidogyne incognita
(§1) Solvent: 3 parts by weight of acetone
(§2) Emulsifier: 1 part by weight of alkylaryl polyglycol ether
The treated soil is filled into pots, lettuce is sown and the pots are kept at a greenhouse temperature of 27° C.

Globodera rostochiensis = assay: Critical concentration test, Globodera rostochiensis (potatoes in infested soil); assay type: in vivo; settings: active compound concentrations of 2.5, 5 and 10 ppm in soil; potato root cysts after six weeks; 18° C.
Method: Critical concentration test
Test nematode: Globodera rostochiensis
as §1, §2
The treated soil is filled into pots, potatoes are planted and the pots are kept at a greenhouse temperature of 18° C.

LD50 on rats (oral) = settings: rat, in vivo, stomach tube, in polyethylene glycol Lutrol, read-out: LD50 (mg of active compound/kg of body weight)
Method: LD50 values on rats (oral)
The values were determined in the customary manner.

[1] = known from U.S. Pat. No. 2,978,479 and Pesticide Manual; cited from earlier work

Structure (SMILES) | degree of effectiveness (Meloidogyne incognita) [%] | degree of effectiveness (Globodera rostochiensis) [%] | LD50 (LD50 on rats (oral)) [mg/kg] | insecticidal and nematicidal properties [1]
CC(NC(=O)c1c(F)cccc1F)C(F)(F)F (stereo not drawn) [Example 1, 2,6-difluorobenzoic acid N-(1,1,1-trifluoro-prop-2-yl)-amide] | 95 | 95 |  | 
O=C(NCC(F)(F)F)c1c(F)cccc1F [Example 5] |  | 95 |  | 
CCOP(=O)(NC(C)C)Oc1ccc(SC)c(C)c1 (stereo not drawn) [fenamiphos, O-ethyl-O-(3-methyl-4-methylthio-phenyl)-N-isopropyl-phosphoric acid ester-amide, reference compound] | 95 |  | 10 to 20 | very good
CC(NC(=O)c1ccccc1Cl)C(F)(F)F (stereo not drawn) [Example 29] | 95 | 95 |  | 
CN(CC(F)(F)F)C(=O)c1c(F)cccc1F [Example 6] | 95 |  |  | 
O=C(NC1(C(F)(F)F)CC1)c1c(F)cccc1F [Example 33] | 95 | 95 |  | 
CC(NC(=O)c1c(F)cccc1F)C(F)(F)F (stereo not drawn) [drawing 61] |  |  | > 1000 | 
